{"source": "patent US9133186B2", "about": "“Hetero ring-fused imidazole derivative having AMPK activating effect” (Shionogi & Co., Ltd., priority 2010, dated 2015)", "key": {"Human AMPK α2β2γ1": {"biological_target": "T1, Human AMPK α2β2γ1 (Homo sapiens, UniProt O43741+P54646)", "T1 construct": "The full length cDNAs of human AMPK P2 (NM_005399.3) and human AMPK α2 (NM_006252.3); 6×His (N); made in house; host or cells: Escherichia coli BL21 CodonPlus (DE3)-RIL", "T1 sequence (P54646 whole entry)": "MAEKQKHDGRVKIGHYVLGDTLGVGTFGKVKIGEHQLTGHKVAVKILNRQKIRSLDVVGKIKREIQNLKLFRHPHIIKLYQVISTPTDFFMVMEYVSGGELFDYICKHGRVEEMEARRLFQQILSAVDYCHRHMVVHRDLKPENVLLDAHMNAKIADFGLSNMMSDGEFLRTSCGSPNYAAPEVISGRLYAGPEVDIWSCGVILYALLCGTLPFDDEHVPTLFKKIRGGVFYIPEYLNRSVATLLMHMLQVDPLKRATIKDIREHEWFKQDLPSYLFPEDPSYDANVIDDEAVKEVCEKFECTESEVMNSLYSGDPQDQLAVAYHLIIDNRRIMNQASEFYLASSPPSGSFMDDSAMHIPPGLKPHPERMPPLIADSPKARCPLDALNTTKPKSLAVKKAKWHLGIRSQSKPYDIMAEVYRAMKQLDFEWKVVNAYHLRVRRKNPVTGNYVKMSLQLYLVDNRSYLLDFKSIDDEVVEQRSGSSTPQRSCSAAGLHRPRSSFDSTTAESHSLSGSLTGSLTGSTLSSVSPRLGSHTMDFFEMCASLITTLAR", "T1 sequence (O43741 whole entry)": "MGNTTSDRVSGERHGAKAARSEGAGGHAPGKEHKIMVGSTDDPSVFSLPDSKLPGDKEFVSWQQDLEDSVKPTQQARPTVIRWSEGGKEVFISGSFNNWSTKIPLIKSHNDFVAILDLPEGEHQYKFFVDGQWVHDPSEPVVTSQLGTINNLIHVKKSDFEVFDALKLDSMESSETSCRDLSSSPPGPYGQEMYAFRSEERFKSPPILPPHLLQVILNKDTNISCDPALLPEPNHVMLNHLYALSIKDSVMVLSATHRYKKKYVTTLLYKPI", "T1 sequence (P54619 whole entry partner)": "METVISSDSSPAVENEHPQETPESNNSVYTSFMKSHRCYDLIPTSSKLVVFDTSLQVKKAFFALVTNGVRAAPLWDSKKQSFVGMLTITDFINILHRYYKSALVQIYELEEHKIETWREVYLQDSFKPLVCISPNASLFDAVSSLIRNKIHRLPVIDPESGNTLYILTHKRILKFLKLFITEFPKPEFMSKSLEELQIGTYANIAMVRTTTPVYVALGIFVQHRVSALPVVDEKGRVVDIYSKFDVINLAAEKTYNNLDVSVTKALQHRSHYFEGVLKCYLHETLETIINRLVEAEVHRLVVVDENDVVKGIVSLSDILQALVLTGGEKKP", "assay": "AMPK activator evaluation, Test Example 2 (CaMKK2-phosphorylated enzyme, mobility shift)", "assay_type": "biochemical", "details": "human AMPK α2β2γ1 phosphorylated with CaMKK2, control = 100%; for Emax: read-out: Emax (maximum rate of increase in activity within the measurement range)", "protocol": "The full length cDNAs of human AMPK P2 (NM_005399.3) and human AMPK α2 (NM_006252.3) were inserted into the MCS1 and MCS2 of the pETDuet-1 vector to prepare a human AMPK β2 and human AMPK α2 (6×His tag at the 5′ terminus) expressing plasmid. The plasmid was contransfected with an expression plasmid, in which the full length cDNA of human AMPK γ1 (NM_002733.3) had been inserted into pET28b(+), into BL21 CodonPlus (DE3)-RIL to obtain an expression strain. The expression strain was cultured in TB medium, followed by induction with 0.5 mM IPTG, and cultured at 25° C. for 3 hours and then harvested. After ultrasonication, supernatant was collected and applied to Histrap column (GE) and RESOUECE Q 6 ml column (GE) to prepare 12.5 mg of purified sample containing three types of subunit from 1.8 L of broth.\nAn expression vector, in which the full length cDNA of human CAMKK β (NM_172226.1) had been inserted into pGEX-6P-3, was transfected into BL21 Star (DE3). The expression strain was cultured in TB medium, followed by induction with 0.5 mM IPTG, and cultured at 25° C. for 3 hours and then harvested. After ultrasonication, supernatant was collected and applied to GSTrap FF column (GE) to prepare 14 mg of GST-fused CAMKK β from 720 ml of broth.\nThus, phosphorylation treatment was carried out as pretreatment.\nHuman AMPK α2β2γ1 in an amount to give a conversion rate of approximately 10% by reaction for 2 hours, and CaMKK2 in an amount capable of sufficiently imparting activity to AMPK for one hour were mixed in a buffer solution consisting of a 50 mM HEPES-NaOH buffer solution (pH 7.0), 100 mM NaCl, 5 mM magnesium chloride, 0.1% bovine serum albumin, 0.2 mM sodium orthovanadate(V), 1 mM ethylene glycol-bis(2-aminoethyl ether)-N,N,N′,N′-tetraacetic acid (EGTA), 5 mM disodium β-glycerophosphate, 1 mM dithiothreitol and 0.2 mM ATP, and the obtained liquid was left to stand at 25° C. for 1 to 1.5 hours to sufficiently phosphorylate AMPK.\nAfter that, to the enzyme liquid, which had been subjected to phosphorylation treatment, a compound dissolved in DMSO was added so as to have a 1% DMSO concentration. The obtained liquid was left to stand for 10 minutes.\n(§1) To the liquid, a substrate solution consisting of a 50 mM HEPES-NaOH buffer solution (pH 7.0), 100 mM NaCl, 10 mM magnesium chloride, 0.1% bovine serum albumin, 0.2 mM sodium orthovanadate(V), 1 mM ethylene glycol-bis(2-aminoethyl ether)-N,N,N′,N′-tetraacetic acid (EGTA), 5 mM disodium glycerophosphate, 2 mM dithiothreitol, 0.4 mM ATP and 3 μM FL-Peptide 7 (manufactured by Caliper Life Sciences, Inc.) was added in equal amount (10 μl in total). The obtained liquid was allowed to react at 25° C. for 2 hours, and 10 μl of 20 mM EDTA was then added thereto to stop the reaction.\n(§2) To detect phosphorylated fluorescent substrates, the reaction liquid was applied to a measuring device, LabChip EZ Reader II manufactured by Caliper Life Science, Inc., for detecting fluorescence by using differences in mobility due to differences in charge. The setting conditions for the device were pressure, −1.5 PSI; upstream voltage, −2250 V; downstream voltage, −400 V; post sample buffer sip time, 40 seconds; final delay, 120 seconds; and peak order, Product First.\nA conversion rate was calculated from the peak heights of the resulting substrate and product. The conversion rate when not containing a compound was used as a control, and a concentration dependent curve was made by plotting the rate of increase in activity to the control at each concentration of a compound."}, "human AMPK α1β1γ1 enzyme": {"biological_target": "T2, human AMPK α1β1γ1 enzyme (Homo sapiens, UniProt Q13131+Q9Y478)", "T2 construct": "purchased Carna Biosciences, Inc", "T2 sequence (Q13131 10-559 limits assumed)": "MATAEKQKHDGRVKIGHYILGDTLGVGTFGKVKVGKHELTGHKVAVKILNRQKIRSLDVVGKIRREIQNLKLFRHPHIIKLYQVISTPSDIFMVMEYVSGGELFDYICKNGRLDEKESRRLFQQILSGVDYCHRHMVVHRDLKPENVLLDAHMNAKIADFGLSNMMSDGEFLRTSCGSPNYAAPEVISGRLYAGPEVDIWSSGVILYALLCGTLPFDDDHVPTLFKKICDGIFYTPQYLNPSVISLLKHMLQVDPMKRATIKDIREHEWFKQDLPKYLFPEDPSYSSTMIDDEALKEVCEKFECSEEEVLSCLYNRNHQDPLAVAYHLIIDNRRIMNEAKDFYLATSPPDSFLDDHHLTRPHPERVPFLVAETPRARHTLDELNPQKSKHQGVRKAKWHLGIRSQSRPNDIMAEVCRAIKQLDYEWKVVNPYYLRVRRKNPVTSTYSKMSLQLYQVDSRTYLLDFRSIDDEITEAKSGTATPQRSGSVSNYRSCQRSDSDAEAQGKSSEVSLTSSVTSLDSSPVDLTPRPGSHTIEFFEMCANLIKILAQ", "T2 sequence (Q9Y478 whole entry)": "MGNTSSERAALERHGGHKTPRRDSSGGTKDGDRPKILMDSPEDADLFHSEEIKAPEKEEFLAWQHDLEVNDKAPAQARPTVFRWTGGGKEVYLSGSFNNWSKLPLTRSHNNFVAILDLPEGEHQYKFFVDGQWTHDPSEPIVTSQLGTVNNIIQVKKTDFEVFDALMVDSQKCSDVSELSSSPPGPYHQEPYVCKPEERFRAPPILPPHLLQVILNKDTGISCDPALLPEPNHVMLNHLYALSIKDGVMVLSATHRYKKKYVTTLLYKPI", "T2 sequence (P54619 whole entry partner)": "as the sequence (P54619 whole entry partner) above", "assay": "AMPK activator evaluation, Test Example 1 (mobility shift, FL-Peptide 7)", "assay_type": "biochemical", "details": "human AMPK α1β1γ1, control without compound = 100%; for Emax: read-out: Emax (maximum rate of increase in activity within the measurement range)", "protocol": "To a buffer solution consisting of a 50 mM HEPES-NaOH buffer solution (pH 7.0), 100 mM NaCl, 10 mM magnesium chloride, 0.1% bovine serum albumin, 0.2 mM sodium orthovanadate(V), 1 mM ethylene glycol-bis(2-aminoethyl ether)-N,N,N′,N′-tetraacetic acid (EGTA), 5 mM disodium (3-glycerophosphate and 2 mM dithiothreitol, a human AMPK α1β1γ1 enzyme (manufactured by Carna Biosciences, Inc.) was added in an amount to give a conversion rate of approximately 10% by reaction for 2 hours, and a compound dissolved in DMSO was added thereto so as to have a 1% DMSO concentration. The obtained liquid was left to stand for 10 minutes.\nas §1, with “ether)-N,N,N′,N′ tetraacetic” for “ether)-N,N,N′,N′-tetraacetic”, “β-glycerophosphate,” for “glycerophosphate,”\nas §2"}}}
{"smiles": "Cc1ccc(Oc2nc3nc(-c4ccc5c(ccn5C)c4)c(Cl)cc3[nH]2)cc1C(=O)O", "note": "[Compound A-2]", "values": [{"measurement": "EC150 (compound concentration showing 150% relative to the control)", "setting": "Human AMPK α2β2γ1", "result": 74, "unit": "nM"}, {"measurement": "Emax", "setting": "Human AMPK α2β2γ1", "result": 406, "unit": "%"}, {"measurement": "EC150 (compound concentration showing 150% relative to the control)", "setting": "human AMPK α1β1γ1 enzyme", "result": 7, "unit": "nM"}, {"measurement": "Emax", "setting": "human AMPK α1β1γ1 enzyme", "result": 408, "unit": "%"}]}
{"smiles": "O=C(O)c1ccc(Oc2nc3nc(-c4ccc(N5CCOCC5)cc4)c(Cl)cc3[nH]2)cc1", "note": "[Compound B-101]", "values": [{"measurement": "EC150 (compound concentration showing 150% relative to the control)", "setting": "Human AMPK α2β2γ1", "result": 1300, "unit": "nM"}, {"measurement": "Emax", "setting": "Human AMPK α2β2γ1", "result": 212, "unit": "%"}, {"measurement": "EC150 (compound concentration showing 150% relative to the control)", "setting": "human AMPK α1β1γ1 enzyme", "result": 120, "unit": "nM"}, {"measurement": "Emax", "setting": "human AMPK α1β1γ1 enzyme", "result": 269, "unit": "%"}]}
{"smiles": "Cc1ccc(C(=O)O)cc1Oc1nc2nc(-c3ccc(N4CCOCC4)cc3)c(Cl)cc2[nH]1", "note": "[Compound B-108]", "values": [{"measurement": "EC150 (compound concentration showing 150% relative to the control)", "setting": "Human AMPK α2β2γ1", "result": 410, "unit": "nM"}, {"measurement": "Emax", "setting": "Human AMPK α2β2γ1", "result": 341, "unit": "%"}, {"measurement": "EC150 (compound concentration showing 150% relative to the control)", "setting": "human AMPK α1β1γ1 enzyme", "result": 27, "unit": "nM"}, {"measurement": "Emax", "setting": "human AMPK α1β1γ1 enzyme", "result": 340, "unit": "%"}]}
{"smiles": "Cc1ccc(Oc2nc3nc(-c4ccc(N5CCOCC5)cc4)c(Cl)cc3[nH]2)cn1", "note": "[Compound B-119]", "values": [{"measurement": "EC150 (compound concentration showing 150% relative to the control)", "setting": "Human AMPK α2β2γ1", "result": 240, "unit": "nM"}, {"measurement": "Emax", "setting": "Human AMPK α2β2γ1", "result": 242, "unit": "%"}, {"measurement": "EC150 (compound concentration showing 150% relative to the control)", "setting": "human AMPK α1β1γ1 enzyme", "result": 220, "unit": "nM"}, {"measurement": "Emax", "setting": "human AMPK α1β1γ1 enzyme", "result": 265, "unit": "%"}]}
{"smiles": "Cc1ccc(Oc2nc3cc(Cl)c(-c4ccc(-c5ccccc5O)cc4)nc3[nH]2)cc1C(=O)O", "note": "[Compound C-4]", "values": [{"measurement": "EC150 (compound concentration showing 150% relative to the control)", "setting": "Human AMPK α2β2γ1", "result": 4.3, "unit": "nM"}, {"measurement": "Emax", "setting": "Human AMPK α2β2γ1", "result": 292, "unit": "%"}, {"measurement": "EC150 (compound concentration showing 150% relative to the control)", "setting": "human AMPK α1β1γ1 enzyme", "result": 0.42, "unit": "nM"}, {"measurement": "Emax", "setting": "human AMPK α1β1γ1 enzyme", "result": 355, "unit": "%"}]}
{"smiles": "Cc1ccc(Oc2nc3nc(-c4ccc(N5CCOCC5)cc4)c(Cl)cc3[nH]2)cc1C(N)=O", "note": "[Compound C-12]", "values": [{"measurement": "EC150 (compound concentration showing 150% relative to the control)", "setting": "Human AMPK α2β2γ1", "result": 130, "unit": "nM"}, {"measurement": "Emax", "setting": "Human AMPK α2β2γ1", "result": 293, "unit": "%"}, {"measurement": "EC150 (compound concentration showing 150% relative to the control)", "setting": "human AMPK α1β1γ1 enzyme", "result": 140, "unit": "nM"}, {"measurement": "Emax", "setting": "human AMPK α1β1γ1 enzyme", "result": 256, "unit": "%"}]}
{"smiles": "O=C(O)C1(c2ccc(Oc3nc4nc(-c5ccc(N6CCCC6)cc5)c(Cl)cc4[nH]3)cc2)CC1", "note": "[Compound C-94]", "values": [{"measurement": "EC150 (compound concentration showing 150% relative to the control)", "setting": "Human AMPK α2β2γ1", "result": 59, "unit": "nM"}, {"measurement": "Emax", "setting": "Human AMPK α2β2γ1", "result": 325, "unit": "%"}, {"measurement": "EC150 (compound concentration showing 150% relative to the control)", "setting": "human AMPK α1β1γ1 enzyme", "result": 12, "unit": "nM"}, {"measurement": "Emax", "setting": "human AMPK α1β1γ1 enzyme", "result": 352, "unit": "%"}]}
{"smiles": "Cc1ncc(Oc2nc3nc(-c4ccc(N5CCOCC5)cc4)c(Cl)cc3[nH]2)cn1", "note": "[Compound C-106]", "values": [{"measurement": "EC150 (compound concentration showing 150% relative to the control)", "setting": "Human AMPK α2β2γ1", "result": 580, "unit": "nM"}, {"measurement": "Emax", "setting": "Human AMPK α2β2γ1", "result": 290, "unit": "%"}, {"measurement": "EC150 (compound concentration showing 150% relative to the control)", "setting": "human AMPK α1β1γ1 enzyme", "result": 690, "unit": "nM"}, {"measurement": "Emax", "setting": "human AMPK α1β1γ1 enzyme", "result": 278, "unit": "%"}]}
{"smiles": "CC(=O)NC(C)(C)c1ccc(Oc2nc3nc(-c4ccc(N5CCC(O)C5)cc4)c(Cl)cc3[nH]2)cc1", "note": "[Compound D-49]", "values": [{"measurement": "EC150 (compound concentration showing 150% relative to the control)", "setting": "Human AMPK α2β2γ1", "result": 54, "unit": "nM"}, {"measurement": "Emax", "setting": "Human AMPK α2β2γ1", "result": 420, "unit": "%"}, {"measurement": "EC150 (compound concentration showing 150% relative to the control)", "setting": "human AMPK α1β1γ1 enzyme", "result": 3.5, "unit": "nM"}, {"measurement": "Emax", "setting": "human AMPK α1β1γ1 enzyme", "result": 263, "unit": "%"}]}
